From US20230011800A1, “[…] CHIP FOR […] AND TOXICITY ON NERVE, AND USE THEREOF” (CHA UNIVERSITY INDUSTRY-ACADEMIC COOPERATION FOUNDATION, priority 2019, published 2023)
Entries after “also recorded” stand apart in the source; their conditions may differ.

Assays:
Format in all cases: cell-based
[1] = tested on: astrocytes differentiated from human stem cells (hPSCs); assay: MeHg toxicity on astrocytes in the nerve chip, immunostaining with GFAP and S100B; settings: 3 hours
Method: (§1) It was assessed whether neurotoxicity can be evaluated by a noticeable biomimetic nerve chip of the present invention in which an in vivo environment similar to physiological characteristics of the nervous system was constructed. First, methylmercury chloride (MeHg), a representative environmental toxic substance known to pass through the brain barrier regardless of a structure of the brain barrier and to have neurotoxicity, was selected as a toxic substance for treatment. The neurotoxicity evaluation was conducted by treating a chip having only neurons cultured and a chip having neurons and astrocytes co-cultured, with MeHg at various concentrations (0 μM, 1 μM, 5 μM, 10 μM) for 3 hours and then examining the cell response changes according to the MeHg time and concentration through real-time live cell imaging and immunocytochemistry, and then the functionality of the biomimetic nerve chip as a drug toxicity evaluation platform was assessed (FIGS. 8 to 10).
On the basis of the assertion that this S100B increase is associated with CNS damage, immunostaining was performed using GFAP and S100B, which were used as markers for brain damage due to metal-induced neurotoxicity, in order to identify astrocytes and examine the response of astrocytes in the MeHg detection (FIG. 9C).

[2] = tested on: astrocytes differentiated from human stem cells (hPSCs); assay: MeHg toxicity on astrocytes cultured in the nerve chip, Calcein-AM live cell imaging
Source text: Astrocytes, differentiated from human stem cells (hPSCs), were secured by direct differentiation. Human stem cells (hPSCs) were maintained through culture and passage by using TeSr-E8 medium in a Matrigel-coated culture dish, and for differentiation into neurons, neural progenitor cells (NPCs) were first prepared. The stem cell colonies were detached using […], and then embryoid bodies (EBs) were formed using DMEM/F12 medium containing 20% knock out serum replacement, 1% nonessential amino acids, 55 μM β-mercaptoethanol, 10 μM SB431542, and 5 μM DMH1, and then again attached to a Matrigel-coated culture dish to form neural rosettes in DMEM/F12 medium containing 1% N2 supplement, […] insulin, and 20 ng/mL basic fibroblast growth factor. Only the center of the rosettes was separated using a thinly drawn Pasteur pipette, and then cultured in DMEM/F12 medium containing 1% N2 supplement, 20 ng/mL basic fibroblast growth factor, and 20 ng/mL epidermal growth factor to secure NPCs. The secured NPCs were again attached to a Matrigel-coated culture dish at a density of 2.8×10^3 cells/cm, and cultured in DMEM/F12 medium containing 1% N2 supplement, 2% vitamin A-removed B27 supplement, 10 ng/mL bone morphogenetic protein-4, 10 ng/mL ciliary neurotrophic factor, and 10 ng/mL leukemia inhibitory factor to thereby obtain finally differentiated astrocytes. […]
as §1, with “First, methylmercury chloride (MeHg), a representative environmental toxic substance known to pass through the brain barrier regardless of a structure of the brain barrier and to have neurotoxicity, was selected as a toxic substance for treatment.” left out

[3] = tested on: neurons differentiated from human stem cells (hPSCs) (Neurosight-S); assay: MeHg neurotoxicity on neurons cultured alone in the nerve chip, immunostaining with Tuj1 and MAP2; settings: 1 μM, 5 μM and 10 μM MeHg, 3 hours
Method: as §1
The cell types can be distinguished by morphological characteristics of cells, but Calcein-AM targets all living cells regardless of the type of cells and thus cannot clearly identify the types of cells. The present inventors re-examined whether the neurons were damaged at the same extent by MeHg, through immunostaining using Tuj1 and MAP2 antibodies targeting only neurons (FIG. 8C).

[4] = tested on: neurons co-cultured with astrocytes (human stem cell-derived); assay: MeHg neurotoxicity on neurons co-cultured with astrocytes in the nerve chip (astrocyte neuroprotection), Calcein-AM and MAP2
Method: (§2) The injection of cells was conversely conducted. Human stem cell-derived neurons (Neurosight-S) were preferentially injected, wherein the neurons were prepared at an appropriate concentration for injection of 15×10^4 cells/6 μL, load into the neuron inlet, and injected into the neuron chamber. Human stem cell-derived astrocytes were prepared at an appropriate concentration for injection of 15×10^4 cells/6 μL, and nozzles of syringes each carrying 30 μL were connected to the astrocyte inlets, and the astrocytes were injected into the two astrocyte chambers by using a syringe pump.
as §1
Finally, it was examined whether there was a neuroprotective function from the neurotoxicity of MeHg depending on the presence or absence of astrocytes inside the biomimetic nerve chip. MeHg treatment was conducted under two conditions in which […] were cultured alone and neurons and astrocytes were co-cultured, and the cell viability was evaluated in real time according to the time and concentration changes by using Calcein-AM (FIGS. 10A to 10C). […]

[5] = tested on: neurons differentiated from human stem cells (hPSCs) (Neurosight-S); assay: MeHg neurotoxicity on neurons cultured alone in the biomimetic nerve chip, Calcein-AM live cell imaging
Method: Neurons differentiated from human stem cells (hPSCs) were secured through neurons (Neurosight-S) by NEXEL. A stock was thawed and injected immediately into the chip. The neurons were prepared at an appropriate concentration for injection of 15×10^4 cells/6 μL, loaded into the neuron inlet included in the nerve chip of the present invention, and injected into the neuron chamber passing through the neuron channel. The bottom of the neuron chamber was coated with Matrigel, which was three times more concentrated than usual, for stable attachment in the chip, and the neurons were cultured in Neurosight-S medium supplemented with Supplement (100×) for 3 days during which neurites can be formed.
as §2, §1
Most of the neurons in the control group formed neurite networks while having intact cell bodies and neurites.
The MeHg treatment concentrations were set to 1 μM, 5 μM, and 10 μM, and similarly, the viability of neurons was examined in real time through Calcein-AM.

[6] = as the concentration of MeHg increased (1, 5, 10 μM)
[7] = in the presence of astrocytes, MeHg 1, 5, 10 μM, 3 hours

## [CH3][Hg][Cl] [MeHg, methylmercury chloride]
[1]; [6]
  GFAP expression signal in astrocytes: the GFAP signal decreased
  S100B expression signal in astrocytes: the S100B signal increased
[1]; astrocytes, MeHg 1, 5, 10 μM
  viability of astrocytes, immunostaining: the viability of astrocytes was not changed
[2]; MeHg 1, 5, 10 μM, 3 hours
  degree of morphological change of astrocytes according to concentration, Calcein-AM: no significant difference in the degree of morphological change due to cell aggregation regardless of the concentration
[2]; MeHg 1, 5, 10 μM, up to 3 hours
  cell viability of astrocytes, Calcein-AM: no decrease in cell viability was observed
[2]; MeHg, 1-hour intervals for 3 hours
  morphological changes of astrocytes over time, Calcein-AM: morphological changes of astrocytes due to cell aggregation were observed over time
[3]
  damage to neurons, immunostaining Tuj1 and MAP2: the damage to cells increased as the concentration increased
[4]; [7]
  Calcein-AM signal of neurons according to concentration: maintained without any decrease
  MAP2 signal of neurons according to concentration: maintained without any decrease
[4]; neurons co-cultured with astrocytes, 10 μM MeHg, until 3 hours after treatment
  viability and morphological changes of neurons over time, Calcein-AM: no significant changes were observed, except for a few strands of neurites that partially disappeared
[5]; 1 μM MeHg, after 3 hours
  viability and morphology of neurons (neurites), Calcein-AM: some neurites endured neurotoxicity of MeHg without damage to maintain the state thereof
[5]; 5 μM MeHg, after 3 hours
  viability and morphology of neurons (neurites), Calcein-AM: the neurites almost completely disappeared, leaving only fragmented fragments and only a form of cell bodies; also recorded: neurites disappeared and only the cell bodies remained
[5]; 5 μM MeHg, until 2 hours after treatment
  viability and morphology of neurons (neurites), Calcein-AM: the neurites maintained the state thereof with deterioration little by little without any significant change
[5]; 10 μM MeHg, 1-hour intervals for 3 hours
  Calcein-AM signal of neurons over time: most of the Calcein-AM signals started to rapidly decrease 2 hours after MeHg treatment
[5]; 10 μM MeHg, after 3 hours
  viability and morphology of neurons (neurites, cell bodies), Calcein-AM: even the fluorescence signal of the remaining cell bodies was greatly reduced
